Results reported in US4350700A, “Pharmaceutical composition containing 1,3,5-substituted biuret compound” (Taiho Pharmaceutical Company, Limited, priority 1979, dated 1982).
Where two headings read alike, the source gives them in different places.

Legend:
[1] = system: 10% dry-yeast suspension-induced fever of rats; assay: Anti-pyretic activity (dry-yeast induced fever, febril index); format: in vivo, rats (Wistar strain, male); conditions: oral, febril index up to 4 hours after administration, dose not stated
Experimental: (§1) Next, several tests for determining the pharmacological properties, in that acute toxicity, anti-pyretic activity, analgesic activity and anti-inflammatory activity of the present 1,3,5-substituted biuret compounds of the formula (1) were conducted and the test results are shown in Table (2). In the tests, each compounds to be tested was used as a suspension in 0.25% carboxymethylcellulose solution. Methods for testing are explained as follows:
According to the method reported by Tanabe [Folia Pharmacologia Japonica, Vol. 73, pp. 803 (1977)], the Wistar strain of male rats (150-180 g body weight) were used as test animals. The rats were fasted overnight, and 1 ml/100 g (body weight) of 10% dry-yeast suspension were subcutaneously injected on the back of the rats. Five hours afte the injection, the test compound was administered orally, then the body temperature of the rat was measured time sequences. Anti-pyretic activity of the test compound was determined as the FI (febril index) by integrating pyrogenetic curve up to 4 hours after the administration of the test compound with time, and indicated as inhibitory ratio (%) shown by the following formula, [formula]

ddy strain of male mice = assay: Acute toxicity (oral, general symptom and death observed for 7 days); format: in vivo; conditions: for Acute toxicity, death number of mice/number of mice tested: 7 days
Experimental: as §1
The ddy strain of male mice (body weight, 20-25 g) were used as test animals. The mice were fasted overnight and the compound to be tested was administered orally. […] The lethal dose (mg/kg, body weight) of the test compound was determined in connection with the death number of mice/the number of mice tested. In Table 2, the values indicated with Δ marks are 50% lethal dose, LD50 (mg/kg, body weight).

[2] = system: carrageenin-induced inflammation of the hindpaw of the rat; assay: Anti-inflammatory activity, acute carrageenin-induced inflammatory test; format: in vivo, rats (Wistar strain, male); conditions: for inhibition in vivo at 100 mg/kg / inhibition in vivo at 200 mg/kg: Rattus norvegicus, read-out: Anti-inflammatory activity, inflammation inhibitory ratio; for inhibition in vivo at 200 mg/kg: 200 mg/kg oral
Experimental: as §1
4. Anti-inflammatory Activity
According to the method of acute carrageenin-induced inflammatory test [Folia Pharmacologia Japonica, Vol. 56, pp. 575 (1960)], the Wistar strain of male rats (body weight, 150-180 g) were used as test animals. The rats were fasted overnight, 100 mg/kg body weight of the test compound was administered orally, then 1 hour after the administration, 0.1 ml of 1% carrageenin solution, as the inflammation inducing agent, was injected subcutaneously to the hindpaw of the rat and the volume of the hindpaw was measured at time sequences. Anti-inflammatory activity of the test compound was calculated as inflammation inhibitory ratio (%) at 3 hours after the injection of inflammation inducing agent.

[3] = system: pain reaction of the mouse caused by a clamp; assay: Analgesic activity, Haffner method; format: in vivo, mice (ddy strain, male); conditions: for Analgesic activity, Haffner method, inhibitory ratio: mice
Experimental: as §1
According to the modified method reported by Fujimura et al., [Bulletin of the Institute for Chemical Research, Kyoto University, No. 25, pp. 36 (1951)], the ddy strain of male mice (body weight, 20-25 g) were used as test animals. The mice were fasted overnight, 100 mg/kg body weight of the test compound was administered orally, then 45 minutes after the administration, the threshhold amount (1.5-2.5 mg/kg body weight) of morphine hydrochloride was injected subcutaneously. Then 1-hour pain reaction of the mouse caused by a clamp was observed. Analgesic activity of the test compound was calculated as the inhibitory ratio (%). In Table 2, the values in parentheses show the data obtained from the test by using the dosage other than 100 mg/kg body weight. Further, the values indicated with Δ marks show 50% effective dose, ED50 (mg/kg body weight).

[4] = system: acetic acid-induced stretching symptom of mouse; assay: Analgesic activity, acetic acid-induced stretching method; format: in vivo, mice (ddy strain, male); conditions: for inhibition in vivo at 100 mg/kg / inhibition in vivo at 200 mg/kg: read-out: Analgesic activity, acetic acid-induced stretching method, inhibitory ratio
Experimental: as §1
(1) Acetic acid-induced stretching method
According to the method reported by Koster et.al., [Fed. Proc., Vol. 18, pp. 412 (1959)], the ddy strain of male mice (body weight, 20-25 g) were used as test animals. The mice were fasted overnight, 100 mg/kg body weight of the test compound was administered orally, then 1 hour after the administration, 0.2 ml of 0.7% acetic acid solution was injected intraperitoneally. The acetic acid-induced stretching symptom of mouse was observed. Analgesic activity of the test compound was calculated as the inhibitory ratio (%). In Table 2, the values in parentheses show the data obtained from the test by using the dosage other than 100 mg/kg body weight. Further, the values indicated with Δ marks show 50% effective dose, ED50 (mg/kg body weight).

[5] = 100 mg/kg oral, rats, 3 hours after carrageenin
[6] = rats, 3 hours after carrageenin

Molecule | Anti-pyretic activity, inhibitory ratio [1] [%] | Analgesic activity, Haffner method, inhibitory ratio ([3]; 100 mg/kg oral) [%] | inhibition in vivo at 100 mg/kg ([4]; po) [%] | Acute toxicity, death number of mice/number of mice tested (ddy strain of male mice; 2000 mg/kg oral) | inhibition in vivo at 100 mg/kg [2, 5] [%] | Acute toxicity, death number of mice/number of mice tested (ddy strain of male mice; 1000 mg/kg oral) | further results
1,3-Dimethyl-5-(4-methyl-2-pyridyl)biuret [compound 18] | 60 | 25 |  |  |  |  | Acute toxicity, 50% lethal dose LD50 (ddy strain of male mice; oral, 7 days observation (Δ values)): 1500 mg/kg; Anti-inflammatory activity, inflammation inhibitory ratio [2, 5]: 20%
CNC(=O)N(C)C(=O)Nc1ccccc1F [Compound No. 4] | 79 | 25 | 37.5 | 0/4 | 41 |  | 
CNC(=O)N(C)C(=O)Nc1ccccc1Cl [Compound No. 5, 1,3-Dimethyl-5-(2-chlorophenyl)biuret] | 28 |  |  | 0/4 |  |  | inhibition in vivo at 200 mg/kg ([4]; po): 37.5%; inhibition in vivo at 200 mg/kg [2, 6]: 53%; Analgesic activity, Haffner method, inhibitory ratio ([3]; 200 mg/kg oral): 37.5%
CCCNC(=O)N(C)C(=O)Nc1ccccc1 [Compound No. 41, 1-n-Propyl-3-methyl-5-phenylbiuret] | 65 | 37.5 | 62.5 | 0/4 | 67 |  | 
CNC(=O)N(C)C(=O)Nc1ccccc1C(F)(F)F [compound 7, 1,3-Dimethyl-5-(2-trifluoromethylphenyl)biuret] | 121 | 12.5 | 62.5 | 3/4 |  | 0/4 | 
CNC(=O)N(C)C(=O)Nc1ccc(CC(=O)O)cc1 [compound 11, 1,3-Dimethyl-5-(4-carboxymethylphenyl)biuret] | 7 | 37.5 | 25 | 0/4 |  |  | 
CCNC(=O)N(C)C(=O)Nc1ccc(F)cc1 [compound 32, 1-Ethyl-3-methyl-5-(4-fluorophenyl)biuret] | 63 | 37.5 |  | 4/4 |  | 2/4 | inhibition in vivo at 100 mg/kg ([4]; 100 mg/kg oral, mice): 100%
CCNC(=O)N(C)C(=O)Nc1ccc(O)cc1 [compound 34, 1-Ethyl-3-methyl-5-(4-hydroxyphenyl)biuret] |  | 12.5 |  | 0/4 | 19 |  | inhibition in vivo at 100 mg/kg ([4]; 100 mg/kg oral, mice): 25%
CCNC(=O)N(C)C(=O)Nc1ccc(C)cc1 [compound 38, 1-Ethyl-3-methyl-5-(4-methylphenyl)biuret] | 80 | 25 |  | 3/4 |  | 0/4 | inhibition in vivo at 100 mg/kg ([4]; 100 mg/kg oral, mice): 87.5%
CCNC(=O)N(C)C(=O)Nc1ccc(C)c(C)c1 [compound 39, 1-Ethyl-3-methyl-5-(3,4-dimethylphenyl)biuret] | 8 | 37.5 | 50 | 0/4 |  |  | 
CCCNC(=O)NC(=O)NCc1ccccc1 [compound 42] |  |  |  | 0/4 |  |  | inhibition in vivo at 200 mg/kg ([4]; 200 mg/kg oral, mice): 82.5%; inhibition in vivo at 200 mg/kg [2, 6]: 31%; Analgesic activity, Haffner method, inhibitory ratio ([3]; 200 mg/kg oral): 50%
CCCCNC(=O)NC(=O)NCc1ccccc1 [compound 48] |  |  |  | 0/4 |  |  | ED50 ([4]; oral, mice (Δ values; range in parentheses), read-out: Analgesic activity, acetic acid-induced stretching method, 50% effective dose ED50): 111 mg/kg; inhibition in vivo at 200 mg/kg [2, 6]: 46%; ED50 ([3]; Mus musculus, oral, mice (Δ values; range in parentheses), read-out: Analgesic activity, Haffner method, 50% effective dose ED50): 110 mg/kg
CCCCCNC(=O)N(C)C(=O)Nc1ccccc1 [compound 52, 1-n-Pentyl-3-methyl-5-phenylbiuret] | 38 | 37.5 | 62.5 | 0/4 |  |  | 
CN(C(=O)NCCCl)C(=O)Nc1ccccc1 [compound 53, 1-(2-Chloroethyl)-3-methyl-5-phenylbiuret] |  | 25 | 12.5 | 0/4 |  |  | inhibition in vivo at 100 mg/kg ([2]; po, 3 h): 40%
CN(C(=O)NCCC#N)C(=O)Nc1ccccc1 [compound 54, 1-(2-Cyanoethyl)-3-methyl-5-phenylbiuret] |  | 12.5 | 50 | 3/4 | 39 | 0/4 | 
CN(C)CCNC(=O)N(C)C(=O)Nc1ccccc1 [compound 55, 1-(2-Dimethylaminoethyl)-3-methyl-5-phenylbiuret] |  | 12.5 | 12.5 |  | 22 | 3/4 | Acute toxicity, death number of mice/number of mice tested (ddy strain of male mice; 500 mg/kg oral): 2/4
CN(C(=O)NCCO)C(=O)Nc1ccccc1 [compound 56, 1-(2-Hydroxyethyl)-3-methyl-5-phenylbiuret] |  | 37.5 | 62.5 | 0/4 | 42 |  | 
CONC(=O)N(C)C(=O)Nc1ccccc1 [compound 63, 1-Methoxy-3-methyl-5-phenylbiuret] |  | 25 | 50 | 4/4 |  | 0/4 | inhibition in vivo at 100 mg/kg ([2]; po, 3 h): 50%
